According to US20040071656A1, “Modulation of heat-shock-protein-based immunotherapies” (priority 2001, published 2004):

Assays:
human CD40 = target: T1, human CD40 (Homo sapiens, UniProt P25942); assay: Binding to Cos-7 cells transiently transfected with human CD40 cDNA, fluorescence microscopy; format: cell-based; conditions: 250 nM biotinylated protein, 30 min at 0° C.
T1 construct: CD40 full-length cDNA was cloned by PCR; expressed in transfected cells
Experimental: (§1) Cell culture and fluorescence microscopy. The murine macrophage cell line ANA1 was kindly provided by H. Wagner (Munich, Germany). ANA-1 cells were cultured in VLE-RPMI 1640 (Biochrom), supplemented with 10% FCS, 2 mM L-glutamine and antibiotics. For fluorescence microscopy, ANA1 cells were either stimulated with LPS (20 μg/ml, Sigma, Germany), or kept in an LPS-free medium (mock treatment) for 7 h. After stimulation, cells were harvested and incubated with 100 nM biotinylated Hsp70, biotinylated GST, or Hsp70/peptide C-biotin complex for 30 min at 0° C. in VLE-RPMI 1640. After incubation cells were processed for staining with streptavidin-TRITC (Sigma, Germany), fixed with paraformaldehyde and analyzed by fluorescence microscopy (Axiovert 35, Zeiss) as described (Sondermann et al., 2000). […] Twenty-four h post-transfection cells were incubated with 250 nM biotinylated Hsp70, biotinylated GST or Hsp70/peptide C-biotin complex for 30 min at 0° C. in DMEM, fixed, stained with streptavidin-TRITC (Sigma, Germany), and analyzed by fluorescence microscopy as described (Sondermann et al., 2000, idem). […] Stably transfected cell lines were analyzed by immunoblotting for CD40 expression using an anti-CD40 antibody (CSA180, Stressgen). […]
Mock-treated and LPS-stimulated ANA-1 cells were analyzed for their expression of CD40. […]

ANA1 cells = assay: Binding of biotinylated Hsp70 / Hsp70-peptide C-biotin to ANA1 macrophage cells, fluorescence microscopy; format: cell-based, murine; conditions: 100 nM biotinylated protein
Experimental: as §1
Details for FIG. 1. […] After 30 min at 4° C. cells were washed, incubated with TRITC-labeled streptavidin, washed again, and processed for fluorescence microscopy. […]

T1 sequence (P25942 21-277): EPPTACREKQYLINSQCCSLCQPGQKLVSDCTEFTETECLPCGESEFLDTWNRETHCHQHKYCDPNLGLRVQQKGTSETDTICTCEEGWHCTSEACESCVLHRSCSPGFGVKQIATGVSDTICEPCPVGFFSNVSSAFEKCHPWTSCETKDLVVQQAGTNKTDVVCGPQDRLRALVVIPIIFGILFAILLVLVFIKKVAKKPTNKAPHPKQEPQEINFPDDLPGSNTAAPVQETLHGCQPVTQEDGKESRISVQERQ

Hsp70: Recombinant human heat shock protein 70, expressed and purified as His-tagged protein
binding to CD40-transfected Cos-7 cells (human CD40): bound to the surface of transfected cells but not to untransfected cells | binding to LPS-stimulated ANA-1 cells (ANA1 cells; LPS 20 μg/ml 7 h): significant increase in binding | binding to unstimulated ANA-1 cells (ANA1 cells; mock treated cells, 30 min, streptavidin-TRITC): weak but clearly detectable binding
